The test concerns the target T1, endogenous PTHR in ROS 17/2.8 cells (Rattus norvegicus, UniProt P25961).
T1 construct: ROS 17/2.8 cells are rat osteosarcoma cells and express the endogenous PTHR; endogenous in cells; host or cells: ROS 17/2.8 rat osteosarcoma cells
T1 sequence (P25961 27-591): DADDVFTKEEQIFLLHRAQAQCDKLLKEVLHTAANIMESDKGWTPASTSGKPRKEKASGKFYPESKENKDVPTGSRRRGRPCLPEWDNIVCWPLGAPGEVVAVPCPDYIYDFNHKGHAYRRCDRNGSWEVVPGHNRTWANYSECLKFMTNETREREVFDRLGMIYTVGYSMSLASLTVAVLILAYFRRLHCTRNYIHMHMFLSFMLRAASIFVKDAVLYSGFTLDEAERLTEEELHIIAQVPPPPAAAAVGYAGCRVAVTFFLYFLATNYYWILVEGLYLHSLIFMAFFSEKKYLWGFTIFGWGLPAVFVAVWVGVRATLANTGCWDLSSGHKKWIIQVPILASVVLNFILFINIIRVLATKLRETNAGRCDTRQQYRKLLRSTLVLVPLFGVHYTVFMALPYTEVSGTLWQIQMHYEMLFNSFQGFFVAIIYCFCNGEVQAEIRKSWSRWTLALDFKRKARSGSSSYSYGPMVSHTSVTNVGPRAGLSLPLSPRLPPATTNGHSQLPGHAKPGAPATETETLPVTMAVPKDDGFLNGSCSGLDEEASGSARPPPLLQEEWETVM
The test can be described thus: Stimulation of intracellular cAMP in ROS 17/2.8 cells. Type of test: cell-based. As for the experimental part:
Cell Culture—Cells were cultured at 37° C. in a humidified atmosphere containing 5% CO2 in Dulbecco's modified Eagle's medium (DMEM), supplemented with 10% fetal bovine serum (HyClone, Logan Utah), 100 units/ml penicillin G, and 100 ug/ml streptomycin penicillin G/streptomycin (Invitrogen Corp. Carlsbad, Calif.). For binding and cAMP studies performed with the intact PTHR, the HKRK-B7 and ROS 17/2.8 cell lines were used. HKRK-B7 cells are derived from the porcine kidney cell line LLC-PK1 and express, via stable DNA transfection, the wild-type human PTHR at an approximate surface density of 950,000 PTH-binding sites per cell. ROS 17/2.8 cells are rat osteosarcoma cells and express the endogenous PTHR at an approximate surface density of 80,000 PTH-binding sites per cell. The cells were plated and assayed in 24-well plates.
Stimulation of intracellular cAMP and inositol phosphate—The capacities of the ligands to stimulate adenylyl cyclase activity were assessed in intact ROS 17/2.8 cells, as described (Shimizu, M., (2001) Endocrinology 142:3068-3074). […] The cAMP in the thawed lysate was then quantified by radioimmuno assay. The stimulation of production of inositol phosphates (IP1+IP2+IP3) was assessed in COS-7 cells transfected with the intact human PTHR, as described previously (Shimizu, M., (2001) Endocrinology 142:3068-3074). […]

In general, EC50 refers to the concentration that produces a half-maximal response.

In turn, “SVSEIQLMHNLGKHLNSMEEVEWLRKKLQDV [Arg^20→Glu]” had an EC50 of 59 ± 31 nM.

Source of the values: US8143374B2, “Polypeptide derivatives of parathyroid hormone (PTH)” (The General Hospital Corporation, priority 2006, dated 2012).
